Results on one compound are retold here after patent US20150126464A1, “THERAPEUTIC DRUG AND THERAPEUTIC METHOD FOR NEUROLOGICAL DISEASES INCLUDING ALZHEIMER'S DISEASE ASSOCIATED WITH 1,25D3-MARRS” (priority 2013, published 2015).

Assay [1] has as its system normal mice. The assay is described as follows: Object recognition memory under continuous administration of 1,25D3-MARRS neutralizing antibody. It is filed as in vivo, mouse. The following applies: normal ddY mice, diosgenin i.p. The protocol: To neutralize the 1,25D3-MARRS function of normal mice (ddY mice, male, 6 weeks old), a polyclonal antibody specific to 1,25D3-MARRS, i.e., Ab099 clone, was intraventricularly administered in a continuous manner. Ab099 diluted in ACSF (artificial cerebrospinal fluid) was charged into a micro osmotic pump (model: 1007D, Alzet, Cupertino, Calif., USA) and a brain infusion kit 3 (Alzet). The dilution rate of Ab099 was determined depending on the cerebrospinal fluid (CSF) volume and the inflow velocity so that the concentration would be sufficient for Ab099 to act as a neutralizing antibody in CSF. Using stereotaxic apparatus, a brain infusion cannula (brain infusion kit) was inserted into the right ventricle of each mouse anesthetized beforehand (anterior/posterior: −0.22 mm posterior from bregma, medial/lateral: +1.0 mm, dorsal/ventral: −2.5 mm below surface). The entire cannula insertion site was covered with Loctite 454 (Alzet). The pump was subcutaneously implanted in the back of the mouse. The incision in the skin was sutured.
After the start of continuous antibody administration, the intraperitoneal administration of diosgenin was initiated. After 5-day administration of diosgenin, the object recognition memory training was initiated. The next day, the last administration of diosgenin was performed. The test session was initiated 48 hours after the start of the training session. […]

Assay [2] relates to normal mice. The assay is described as follows: Location recognition test in normal mice. The format is in vivo, mouse. The following applies: diosgenin i.p. 7 days, 48 hours training-test interval. The protocol: Diosgenin (Wako Pure Chemical Industries, Ltd., Osaka, Japan) was dissolved in ethanol at 10 times the final concentration to give a stock solution, and the stock solution was diluted in a 5% aqueous solution of glucose to the final concentration. The diosgenin solution was intraperitoneally administered to normal mice (ddY mice, male, 6 weeks old) once a day (10 μmol/kg/day) for 5 or 6 days. One hour after the last administration, each mouse was housed in a separate open-field box made of polyvinyl chloride (33 cm×28 cm; height: 26.5 cm), habituated to the environment for 10 minutes, and used in the test.
Intraperitoneal administration to the mice of Example 2 and Comparative Example 3 was performed for 7 days. One hour after the last administration, a location recognition test was performed to evaluate the spatial recognition memory. Testing was carried out in a dimly illuminated room (100 lux). The test was performed as described in Tohda, C. et al., Br J Pharmacol. 157, 1427-1440, 2009, written by the inventor and others, except that the time interval between a training session and a test session was 48 hours. As a locomotion index, the path of each mouse was tracked using a digital camera system. The distance each mouse traveled during the 10 minutes was analyzed as locomotion activity with EthoVision 3.0 (Noldus, Wageningen, The Netherlands).

For the compound `C[C@@H]1CC[C@@]2(OC1)O[C@H]1C[C@H]3[C@@H]4CC=C5C[C@@H](O)CC[C@]5(C)[C@H]4CC[C@]3(C)[C@H]1[C@@H]2C` [diosgenin], in the assay with normal mice [1] (ACSF intraventricular, test 48 hours after training), the “preferential index, mice treated with ACSF and diosgenin” value is reported as “significantly improved”. The “memory improvement attributable to diosgenin in mice given 1,25D3-MARRS neutralizing antibody” value in the assay on normal mice [1] (Ab099 clone intraventricular continuous) is reported as “completely offset”. The “frequency of exploratory behavior for the object moved to a new location” value with normal mice [2] is given as greater than 50%.
